For this experiment, the target named is T1, ZmTenA_E (maize TenA_E, GRMZM2G080501) (Zea mays, UniProt B6TPF2).
T1 sequence (B6TPF2 1-224): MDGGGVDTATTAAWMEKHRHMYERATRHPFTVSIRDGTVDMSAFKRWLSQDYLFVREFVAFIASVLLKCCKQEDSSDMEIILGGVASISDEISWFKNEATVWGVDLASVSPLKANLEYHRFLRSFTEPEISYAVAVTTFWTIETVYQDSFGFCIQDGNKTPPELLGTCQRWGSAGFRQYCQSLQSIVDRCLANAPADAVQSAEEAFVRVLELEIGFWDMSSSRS
Briefly: HPLC-UV. Type of experiment: biochemical. The following applies: amino-HMP aminohydrolase; 100 nmol substrate, 50 μg enzyme, 4 h, 30°C.

Regarding `Cc1ncc(CN)c(N)n1` [Amino-HMP, 4-amino-5-aminomethyl-2-methylpyrimidine], the “HPLC-UV (235 nm) hydrolysis assay” value was “both plant TenA_E proteins had some activity against amino-HMP”.

Source of the values: paper PMC6943918 (The Biochemical journal, 2014).
